The compounds below were run on Lactobacillus isolates (assay: Antibiotic disc susceptibility assay). Settings: sensitive if zone of 1 mm or greater.
Experimental: Antibiotic sensitivity profiles of the isolates were determined using the ‘disc susceptibility’ assay. Cultures were grown up in the appropriate broth medium for 24–48 h, spread-plated (100 μl) onto agar media and discs containing known concentrations of the antibiotics were placed onto the agar. Strains were examined for antibiotic sensitivity after 1–2 days incubation at 37° under anaerobic conditions. Strains were considered sensitive if zones of inhibition of 1 mm or greater were seen.
With NCC[C@H](O)C(=O)N[C@@H]1C[C@H](N)[C@@H](O[C@H]2O[C@H](CN)[C@@H](O)[C@H](O)[C@H]2O)[C@H](O)[C@H]1O[C@H]1O[C@H](CO)[C@@H](O)[C@H](N)[C@H]1O [amikacin] the “Sensitivity of the lactobacilli to the antibiotic” value (shortened to “Sensitivity of the lactobacilli”) was “resistant”.
For CC1(C)S[C@@H]2[C@H](NC(=O)[C@H](N)c3ccc(O)cc3)C(=O)N2[C@H]1C(=O)O [amoxycillin], the “Sensitivity of the lactobacilli” value was “sensitive”.
For CC1(C)S[C@@H]2[C@H](NC(=O)[C@H](N)c3ccccc3)C(=O)N2[C@H]1C(=O)O [ampicillin], the “Sensitivity of the lactobacilli” value was “sensitive”.
CO/N=C(\C(=O)N[C@@H]1C(=O)N2C(C(=O)O)=C(COC(C)=O)CS[C@H]12)c1csc(N)n1 [ceftaxime] was tested, and the “Sensitivity of the lactobacilli” value was “sensitive”.
In the case of CO/N=C(\C(=O)N[C@@H]1C(=O)N2C(C(=O)O)=CCS[C@H]12)c1csc(N)n1 [ceftizoxime], the “Sensitivity of the lactobacilli” value is reported as “Variable sensitivity”.
With CO/N=C(\C(=O)N[C@@H]1C(=O)N2C(C(=O)O)=C(CSc3nc(=O)c(=O)[nH]n3C)CS[C@H]12)c1csc(N)n1 [ceftriaxone] the “Sensitivity of the lactobacilli” value was “sensitive”.
CC1=C(C(=O)O)N2C(=O)[C@@H](NC(=O)[C@H](N)C3=CCC=CC3)[C@H]2SC1 [cephradine] was tested, and the “Sensitivity of the lactobacilli” value was “sensitive”.
O=C(N[C@H](CO)[C@H](O)c1ccc([N+](=O)[O-])cc1)C(Cl)Cl [chloramphenicol] was tested, and the “Sensitivity of the lactobacilli” value was “sensitive”.
In the case of O=C(O)c1cn(C2CC2)c2cc(N3CCNCC3)c(F)cc2c1=O [ciprofloxacin], the “Sensitivity of the lactobacilli” value is reported as “sensitive”.
In the case of CCn1cc(C(=O)O)c(=O)c2ccc(C)nc21 [nalidixic acid], the “Sensitivity of the lactobacilli” value is reported as “resistant”.
CCN[C@@H]1C[C@H](N)[C@@H](O[C@H]2OC(CN)=CC[C@H]2N)[C@H](O)[C@H]1O[C@H]1OC[C@](C)(O)[C@H](NC)[C@H]1O [netilmicin] was tested, and the “Sensitivity of the lactobacilli” value was “resistant”.
COc1cc(Cc2cnc(N)nc2N)cc(OC)c1OC [trimethoprim] was tested, and the “Sensitivity of the lactobacilli” value was “resistant”.
For CN[C@H](CC(C)C)C(=O)N[C@H]1C(=O)N[C@@H](CC(N)=O)C(=O)N[C@H]2C(=O)N[C@H]3C(=O)N[C@H](C(=O)N[C@H](C(=O)O)c4cc(O)cc(O)c4-c4cc3ccc4O)[C@H](O)c3ccc(c(Cl)c3)Oc3cc2cc(c3O[C@@H]2O[C@H](CO)[C@@H](O)[C@H](O)[C@H]2O[C@H]2C[C@](C)(N)[C@H](O)[C@H](C)O2)Oc2ccc(cc2Cl)[C@H]1O [vancomycin], the “Sensitivity of the lactobacilli” value was “resistant”.
In the case of gentamicin, the “Sensitivity of the lactobacilli” value is reported as “resistant”.
teicoplanin was tested, and the “Sensitivity of the lactobacilli” value was “Variable sensitivity”.

Reference: patent publication US7186545B2, “Probiotic strains from Lactobacillus salivarius and antimicrobial agents obtained therefrom” (Enterprise Ireland, priority 1997, dated 2007)
